Where a name gives a salt, the structure may show the parent alone. Each block holds one compound with its values, some of them ahead of it.
Tests used:
[1] = target: T1, histamine H2 receptor (Cavia porcellus, UniProt P47747); test: guinea pig heart atrium test: inhibition of histamine-induced positive chronotropic response in the spontaneously beating right atrium; conditions: read-out: pA2 Value (apparent dissociation constant of the H2 antagonist) (converted)
T1 construct: from tissue; host or cells: guinea pig right atrium (isolated, spontaneously beating)
T1 sequence (P47747 whole entry): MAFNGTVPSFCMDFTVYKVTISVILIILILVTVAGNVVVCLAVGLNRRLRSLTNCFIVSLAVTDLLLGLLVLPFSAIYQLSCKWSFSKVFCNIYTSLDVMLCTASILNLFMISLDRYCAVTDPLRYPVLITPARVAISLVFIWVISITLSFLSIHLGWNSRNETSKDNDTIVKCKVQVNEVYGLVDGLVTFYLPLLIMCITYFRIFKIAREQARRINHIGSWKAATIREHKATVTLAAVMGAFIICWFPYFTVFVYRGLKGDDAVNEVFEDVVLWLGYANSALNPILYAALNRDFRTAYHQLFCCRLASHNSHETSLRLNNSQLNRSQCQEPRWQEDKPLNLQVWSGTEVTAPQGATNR
Procedure: The guinea pig heart atrium test is carried out as follows.
A guinea pig right atrium is suspended at 1 g tension (isometric) in the thermostatically controlled (32° C.) tissue bath (10 ml) containing oxygenated (95% O2; 5% CO2) Krebs-Haenseleit buffer (pH 7.4). The tissue is allowed to stabilize over 1 hour. Individual contractions are recorded with a force-displacement transducer through a strain gauge coupler. A control dose-response curve to histamine in the above described tissue bath is obtained after which the tissue is washed 3 times and allowed to re-equilibrate to basal rate. The test compound is added to the tissue bath at the desired final concentration. Thirty minutes after addition of the compound, a fresh histamine dose response curve is again obtained. Then the response to histamine in the presence of antagonist is compared to the histamine control response. This procedure is repeated, using fresh tissues, for each concentration of antagonist tested.

[2] = test system: gastric acid secretion; test: gastric secretion in the rat, modified Shay procedure of pylorus ligation; assay type: in vivo; conditions: 32 mg/kg, interduodenally (i.d.), male Charles River rats, four hours after ligation
Procedure: The procedures for these tests and the results for some of the compounds of the invention are presented at the end of the following examples, which will serve to illustrate the present invention.
The procedure for testing gastric secretion in the rat, a modification of the procedure of Shay et al., Gastroenterology, 26, 906-13 (1954) is carried out as follows.
Male Charles River rats weighing 200-300 grams are deprived of food but not water for 24 hours prior to use. Water is, however, withheld during the experiment. The rats are weighed, anesthetized, and the pylorus ligated according to the method of Shay et al. Treatment or vehicle control is then administered interduodenally (i.d.). Rats are housed 2/cage and sacrificed with CO2 four hours after ligation. The stomachs are removed, rinsed, and contents emptied into a graduated centrifuge tube. The tubes are centrifuged for 20 minutes at 2,000 RPM and the volume of gastric juice recorded. Any samples obviously contaminated by feces, food or hemolysis are eliminated. An aliquot of each is frozen for later analysis of Na^+, K^+ and Cl^- concentration. The pH is measured and 1 ml of gastric juice is titrated with 0.1N NaOH to a pH of 7.0-7.4. Titratable acid output is calculated in microequivalents and the percent inhibition of acid output is calculated as follows: [formula]

[3] = test system: H2 histamine receptors; conditions: background statement; cited from earlier work
[4] = cited from earlier work

- Kb [1]: 0.01 µM
Compound: Nc1ncccc1OCCCNC1=NS(=O)(=O)c2ccccc21 [Example 2, N-[3-[(2-amino-3-pyridinyl)oxy]propyl]-1,2-benzisothiazol-3-amine 1,1-dioxide, hydrochloride, hemihydrate]

- Kb [1]: 0.01 µM
Compound: Nc1cc(OCCCNC2=NS(=O)(=O)c3ccccc32)ccn1 [Example 3, N-[3-[(2-amino-4-pyridinyl)oxy]propyl]-1,2-benzisothiazol-3-amine 1,1 dioxide, hydrochloride, hemiethanolate]
- % Inhibition (of acid output) [2]: 57%

Compound: CNC(=NC#N)NCCSCc1csc(N=C(N)N)n1 [tiotidine]
- selective H2 antagonist activity versus cimetidine [3]: greater activity than cimetidine

Compound: CN/C(=N/CCSCc1nc[nH]c1C)NC#N [Cimetidine]
- confusional states ([4]; elderly patients): tendency to cause confusional states in elderly patients
- anti-androgenic activity ([4]; patients): anti-androgenic activity
- duration of action ([4]; patients): short duration of action
